This note sets out measurements from paper PMC5605198, “MELK is not necessary for the proliferation of basal-like breast cancer cells” (eLife, 2017).

For test [1], the target named is T1, MELK (Homo sapiens, UniProt Q14680). The test is described as follows: Z’-LYTE enzymatic assay. The format is biochemical. The settings on record: Z’-LYTE assay at [ATP]=apparent Km; read-out: Biochemical IC50 MELK.
For the next test, the target named is mTOR (Homo sapiens, UniProt P42345). The test is described as follows: Z’-LYTE enzymatic assay. Conditions: Z’-LYTE assay at [ATP]=apparent Km; read-out: Biochemical IC50 mTOR.
The next test deals with GSK3A (Homo sapiens, UniProt P49840). The test is described as follows: Z’-LYTE enzymatic assay. Conditions: Z’-LYTE assay at [ATP]=apparent Km; read-out: Biochemical IC50 GSK3A.
The next test addresses CDK7 (Homo sapiens, UniProt P50613). In words: Adapta kinase assay. The settings on record: Adapta assay at [ATP]=apparent Km; read-out: Biochemical IC50 CDK7.
For test [2], the target named is T1, MELK. The test is described as follows: KINOMEscan MELK pull-down. It counts as binding. The method, then:
Based on biochemical (KINOMEscan) and cellular (KiNativ) kinase profiling of our in-house library of structurally diverse ATP-competitive kinase inhibitors, we identified several chemotypes that were prioritized for further characterization and development. In particular, we focused on JW-7-25-1 (Figure 1A), a benzonaphthyridinone derivative that inhibited MELK pull-down by 100% (KINOMEscan) at 10 μM.

A further test has as its system FKBP12^F36V-MELK(sg3R). The test is described as follows: dTAG-induced degradation, immunoblot. It counts as cell-based. The settings on record: MELK−/− MDA-MB-468-FKBP12^F36V-MELK(sg3R) cells. The method, then:
Four dTAG molecules (7, 13, 36 and 47) that vary in linker length and chemical structure were tested for their efficiency at depleting FKBP12^F36V-MELK(sg3R) (Figure 4A, Figure 4—figure supplement 3).
Figure 4. […] (A) Chemical structure of heterobifunctional dTAG molecule dTAG-47. See also Figure 4—figure supplement 3 for the chemical structures of dTAG-7, dTAG-13 and dTAG-36. (B) Immunoblots for MELK and GAPDH after treatment of dTAG-7, 13, 36, and 47 at indicated concentrations in MELK−/− MDA-MB-468-FKBP12^F36V-MELK(sg3R) cells for 4 hours. See Figure 4—figure supplement 1 for details of the generation of MELK−/− MDA-MB-468-FKBP12^F36V-MELK(sg3R) clones. (C) Same as in 4B, but with treatment at 500 nM and extended treatment times for 14, 24, 48, and 72 hours. (D) Changes in abundance of 7270 proteins (peptide count ≥2) comparing MELK−/− MDA-MB-468-FKBP12^F36V-MELK cells treated with dTAG-7 (250 nM) or DMSO for 1 hour, versus p-value (dTAG-7: triplicate, DMSO: duplicate, limma moderated t-test). See also Figure 4—source datas 1 and 2 for the original and the processed data. (E) Crystal violet staining image showing parental MDA-MB-468 cells and MELK−/− MDA-MB-468-FKBP12^F36V-MELK(sg3R) cells after treatment with DMSO or 500 nM of dTAG-47 for 9 days. Immunoblots showing MELK and GAPDH from a duplicate plate on Day 9 confirmed sustained depletion of FKBP12^F36V-MELK(sg3R). These are representative data from one of two independent experiments. Figure 4—source data 1. Raw integrated ion intensities from quantitative multiplexed proteomics. Figure 4—source data 2. Processed Data and Statistical Analysis by limma (topTable). Figure 4—figure supplement 1. Single clones selected from MDA-MB-468-FKBP12^F36V-MELK(sg3R) cells subject to CRISPR/Cas9-mediated knockout of endogenous MELK. Immunoblots for MELK and GAPDH in single cell clones selected from MDA-MB-468-FKBP12^F36V-MELK(sg3R) transfected with Cas9/sgMELK-3 to knockout endogenous MELK. Clone 1D4 is clone 1 and clone 1A3 is clone 2 in Figure 4. Clone 1D4 was confirmed with heterozygous −1 and +1 indels; clone 1A3 was confirmed with homozygous −1 deletions. [drawing 5] Figure 4—figure supplement 2. […] (A) Immunoblots for MELK, cyclin B1 and GAPDH in asynchronous versus M-phase arrested MDA-MB-468 cells and MDA-MB-468-FKBP12^F36V-MELK(sg3R) cells (clone 1). […] Chemical structures of dTAG molecules. FKBP12^F36V-binding ligands conjugated by variable linkers to thalidomide or pomalidomide, including (A) dTAG-7, (B) dTAG-13 and (C) dTAG-36 are capable of inducing degradation of FKBP12^F36V-tagged proteins of interest. [drawing 7]
(In general: Immunoblotting shows a protein as a band on a membrane.)

For test [3], the target named is T2, MELK (Homo sapiens, UniProt P62942+Q14680).
T2 construct: expressed in transfected cells; host or cells: MDA-MB-468 (lentiviral transduction, endogenous MELK knocked out)
The test is described as follows: Quantitative multiplexed proteomics (TMT LC-MS3). It counts as cell-based. The settings on record: 250 nM, 60 min, MELK−/− MDA-MB-468-FKBP12^F36V-MELK cells. As for the experimental part: (§1) MELK−/− MDA-MB-468-FKBP12^F36V-MELK cells were treated in duplicates with DMSO for 30 minutes or 60 minutes, or in triplicates with dTAG-7 (250 nM) for 30 minutes or 60 minutes. Cells were washed with ice-cold PBS once, collected by scraping and centrifugation, and lysed in 1 mL of lysis buffer (8 M urea, 1% SDS, 50 mM Tris pH8.5 supplemented with protease and phosphatase inhibitors). A micro-BCA assay (Pierce) was used to determine the protein concentration of each sample. A total of 1200 µg of proteins from each sample was depleted of abundant proteins using two Pierce Top 12 protein depletion spin columns. Eluted proteins were combined, and protein concentration was determined by micro-BCA. […] Peptide quantification was performed using the micro-BCA assay (Pierce). […]
(§2) 12 of the 24 peptide fractions from the basic reverse phase fractionation (every other fraction) were analyzed with an LC-MS3 data collection strategy ([McAlister et al., 2014]) on an Orbitrap Fusion mass spectrometer (Thermo Fisher Scientific) equipped with a Proxeon Easy nLC 1000 for online sample handling and peptide separations. […]
(§3) A suite of in-house software tools were used to for. RAW file processing and controlling peptide and protein level false discovery rates, assembling proteins from peptides, and protein quantification from peptides as previously described. […]

The next test concerns EEA1. In words: Quantitative multiplexed proteomics (TMT LC-MS3). It counts as cell-based, human. The settings on record: 250 nM, 60 min, MELK−/− MDA-MB-468-FKBP12^F36V-MELK cells. The method, then: as §1, with “micro-BCA. Proteins were precipitated on ice for 1 hour with 13% trichloroacetic acid (TCA), washed twice with acetone, and pellets were allowed to air dry. Proteins were resuspended in 6 M urea, 50 mM Tris pH 8.5, reduced with 5 mM dithiothreitol (DTT) at room temperature for 1 hour, and alkylated with 15 mM iodoacetamide in the dark at room temperature for 1 hour. Alkylation was quenched with DTT. Urea concentration was reduced to 4 M and proteins were digested with LysC (1:50; enzyme:protein) for 6 hours at 25°C. The LysC digestion was diluted to 1 M urea, 50 mM Tris pH 8.5 and then digested with trypsin (1:100; enzyme:protein) overnight at 37°C.” for “micro-BCA.”
as §2, §3

The subject of the next test is HNRNPR. The test is described as follows: Quantitative multiplexed proteomics (TMT LC-MS3). The format is cell-based, human. Conditions: 250 nM, 60 min, MELK−/− MDA-MB-468-FKBP12^F36V-MELK cells. The method, then:
as §1, with “micro-BCA. Proteins were precipitated on ice for 1 hour with 13% trichloroacetic acid (TCA), washed twice with acetone, and pellets were allowed to air dry. Proteins were resuspended in 6 M urea, 50 mM Tris pH 8.5, reduced with 5 mM dithiothreitol (DTT) at room temperature for 1 hour, and alkylated with 15 mM iodoacetamide in the dark at room temperature for 1 hour. Alkylation was quenched with DTT. Urea concentration was reduced to 4 M and proteins were digested with LysC (1:50; enzyme:protein) for 6 hours at 25°C. The LysC digestion was diluted to 1 M urea, 50 mM Tris pH 8.5 and then digested with trypsin (1:100; enzyme:protein) overnight at 37°C.” for “micro-BCA.”
as §2, §3

The test system of a further test is MKL1. The test is described as follows: Quantitative multiplexed proteomics (TMT LC-MS3). It counts as cell-based, human. Conditions: 250 nM, 60 min, MELK−/− MDA-MB-468-FKBP12^F36V-MELK cells. The method, then: as §1, with “micro-BCA. Proteins were precipitated on ice for 1 hour with 13% trichloroacetic acid (TCA), washed twice with acetone, and pellets were allowed to air dry. Proteins were resuspended in 6 M urea, 50 mM Tris pH 8.5, reduced with 5 mM dithiothreitol (DTT) at room temperature for 1 hour, and alkylated with 15 mM iodoacetamide in the dark at room temperature for 1 hour. Alkylation was quenched with DTT. Urea concentration was reduced to 4 M and proteins were digested with LysC (1:50; enzyme:protein) for 6 hours at 25°C. The LysC digestion was diluted to 1 M urea, 50 mM Tris pH 8.5 and then digested with trypsin (1:100; enzyme:protein) overnight at 37°C.” for “micro-BCA.”
as §2, §3

pIC50: −log10 of the molar value.

T1 sequence (Q14680 whole entry): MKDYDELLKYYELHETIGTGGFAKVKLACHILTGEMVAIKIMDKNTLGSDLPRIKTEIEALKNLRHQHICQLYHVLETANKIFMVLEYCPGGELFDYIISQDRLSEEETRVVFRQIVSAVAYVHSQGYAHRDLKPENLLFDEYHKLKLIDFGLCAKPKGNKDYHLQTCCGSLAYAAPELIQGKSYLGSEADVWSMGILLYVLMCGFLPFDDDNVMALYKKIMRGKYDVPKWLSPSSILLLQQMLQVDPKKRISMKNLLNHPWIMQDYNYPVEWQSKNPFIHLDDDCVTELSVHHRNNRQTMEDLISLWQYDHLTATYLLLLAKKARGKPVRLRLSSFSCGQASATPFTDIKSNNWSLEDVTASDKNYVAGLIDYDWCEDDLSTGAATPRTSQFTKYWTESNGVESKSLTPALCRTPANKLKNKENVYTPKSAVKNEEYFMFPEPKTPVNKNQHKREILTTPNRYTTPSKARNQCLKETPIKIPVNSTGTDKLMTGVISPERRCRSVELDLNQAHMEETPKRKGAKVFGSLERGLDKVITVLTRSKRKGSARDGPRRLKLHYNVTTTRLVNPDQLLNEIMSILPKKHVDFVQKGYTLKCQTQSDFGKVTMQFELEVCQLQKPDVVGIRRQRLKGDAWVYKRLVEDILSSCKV
Chain of CDK7 (P50613 whole entry): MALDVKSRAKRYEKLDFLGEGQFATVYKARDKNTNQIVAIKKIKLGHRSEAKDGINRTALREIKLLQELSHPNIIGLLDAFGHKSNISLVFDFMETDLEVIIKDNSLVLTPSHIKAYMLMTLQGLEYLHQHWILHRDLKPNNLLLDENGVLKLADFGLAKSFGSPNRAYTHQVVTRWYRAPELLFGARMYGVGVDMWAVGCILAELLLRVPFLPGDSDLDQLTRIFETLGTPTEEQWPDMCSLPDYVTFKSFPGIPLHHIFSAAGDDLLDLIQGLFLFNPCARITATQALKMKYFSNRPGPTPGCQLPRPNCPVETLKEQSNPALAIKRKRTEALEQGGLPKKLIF
Chain of CDK7 (P51946 whole entry partner): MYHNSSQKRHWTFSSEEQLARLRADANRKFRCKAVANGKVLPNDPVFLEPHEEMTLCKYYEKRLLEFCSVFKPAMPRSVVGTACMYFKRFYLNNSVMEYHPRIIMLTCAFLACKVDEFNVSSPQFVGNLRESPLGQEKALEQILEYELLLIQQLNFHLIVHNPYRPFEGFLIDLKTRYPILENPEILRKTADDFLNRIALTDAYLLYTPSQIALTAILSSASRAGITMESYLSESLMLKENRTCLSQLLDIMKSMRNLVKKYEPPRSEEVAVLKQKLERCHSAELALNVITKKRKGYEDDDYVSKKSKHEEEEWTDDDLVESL
Chain of CDK7 (P51948 whole entry partner): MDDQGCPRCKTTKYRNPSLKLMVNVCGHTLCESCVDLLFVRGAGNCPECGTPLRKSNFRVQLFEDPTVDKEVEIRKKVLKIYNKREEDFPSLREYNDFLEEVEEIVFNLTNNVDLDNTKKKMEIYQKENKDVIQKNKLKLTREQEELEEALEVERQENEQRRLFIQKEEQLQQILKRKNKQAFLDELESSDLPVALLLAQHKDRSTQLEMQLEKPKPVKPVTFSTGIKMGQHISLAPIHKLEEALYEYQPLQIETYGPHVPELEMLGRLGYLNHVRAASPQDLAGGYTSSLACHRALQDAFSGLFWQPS
Chain of GSK3A (P49840 whole entry): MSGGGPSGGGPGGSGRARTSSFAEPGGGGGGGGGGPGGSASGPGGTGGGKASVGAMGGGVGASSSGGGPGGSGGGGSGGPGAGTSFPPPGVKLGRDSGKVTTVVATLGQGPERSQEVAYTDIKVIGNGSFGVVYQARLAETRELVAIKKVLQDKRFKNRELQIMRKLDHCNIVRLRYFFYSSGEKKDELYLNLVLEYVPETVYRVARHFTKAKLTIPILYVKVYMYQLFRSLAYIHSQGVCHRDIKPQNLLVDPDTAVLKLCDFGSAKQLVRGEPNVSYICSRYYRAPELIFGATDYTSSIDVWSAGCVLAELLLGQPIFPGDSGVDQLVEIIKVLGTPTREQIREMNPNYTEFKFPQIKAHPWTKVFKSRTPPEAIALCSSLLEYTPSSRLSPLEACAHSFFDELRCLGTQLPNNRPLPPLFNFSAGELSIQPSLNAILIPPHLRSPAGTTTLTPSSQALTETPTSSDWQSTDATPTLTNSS
T2 sequence (P62942+Q14680 fused P62942:F37V): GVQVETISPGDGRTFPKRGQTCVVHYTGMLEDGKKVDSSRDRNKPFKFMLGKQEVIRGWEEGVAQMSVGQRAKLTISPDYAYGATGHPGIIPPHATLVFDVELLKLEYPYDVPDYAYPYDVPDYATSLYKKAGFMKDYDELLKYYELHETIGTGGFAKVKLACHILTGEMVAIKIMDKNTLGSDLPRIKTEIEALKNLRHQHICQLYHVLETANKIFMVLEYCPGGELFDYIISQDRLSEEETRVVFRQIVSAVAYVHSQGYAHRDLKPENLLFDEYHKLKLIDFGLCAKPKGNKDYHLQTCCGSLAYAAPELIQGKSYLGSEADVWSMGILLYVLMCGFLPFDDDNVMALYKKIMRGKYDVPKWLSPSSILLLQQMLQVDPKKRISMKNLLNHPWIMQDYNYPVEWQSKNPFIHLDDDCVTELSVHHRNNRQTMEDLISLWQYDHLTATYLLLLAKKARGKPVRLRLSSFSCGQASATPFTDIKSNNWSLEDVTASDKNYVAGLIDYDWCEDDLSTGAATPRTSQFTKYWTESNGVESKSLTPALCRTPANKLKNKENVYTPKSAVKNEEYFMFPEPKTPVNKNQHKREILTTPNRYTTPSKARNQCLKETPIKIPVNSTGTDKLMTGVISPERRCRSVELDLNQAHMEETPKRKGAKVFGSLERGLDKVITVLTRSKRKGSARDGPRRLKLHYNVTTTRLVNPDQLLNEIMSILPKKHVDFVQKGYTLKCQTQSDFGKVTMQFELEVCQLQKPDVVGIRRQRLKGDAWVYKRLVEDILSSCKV
T2 sequence (Q96SW2 whole entry partner): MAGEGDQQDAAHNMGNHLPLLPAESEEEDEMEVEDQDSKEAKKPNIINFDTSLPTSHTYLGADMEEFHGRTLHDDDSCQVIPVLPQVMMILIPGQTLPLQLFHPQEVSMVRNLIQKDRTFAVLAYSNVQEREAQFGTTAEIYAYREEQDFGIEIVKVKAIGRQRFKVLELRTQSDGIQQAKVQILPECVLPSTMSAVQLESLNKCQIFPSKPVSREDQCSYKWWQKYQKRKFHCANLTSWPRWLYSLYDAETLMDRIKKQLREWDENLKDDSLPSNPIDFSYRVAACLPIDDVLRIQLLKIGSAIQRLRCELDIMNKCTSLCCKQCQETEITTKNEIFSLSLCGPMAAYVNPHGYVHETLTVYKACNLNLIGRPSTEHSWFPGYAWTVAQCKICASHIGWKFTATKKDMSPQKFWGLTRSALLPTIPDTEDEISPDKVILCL
T2 sequence (Q16531 2-1140 partner limits assumed): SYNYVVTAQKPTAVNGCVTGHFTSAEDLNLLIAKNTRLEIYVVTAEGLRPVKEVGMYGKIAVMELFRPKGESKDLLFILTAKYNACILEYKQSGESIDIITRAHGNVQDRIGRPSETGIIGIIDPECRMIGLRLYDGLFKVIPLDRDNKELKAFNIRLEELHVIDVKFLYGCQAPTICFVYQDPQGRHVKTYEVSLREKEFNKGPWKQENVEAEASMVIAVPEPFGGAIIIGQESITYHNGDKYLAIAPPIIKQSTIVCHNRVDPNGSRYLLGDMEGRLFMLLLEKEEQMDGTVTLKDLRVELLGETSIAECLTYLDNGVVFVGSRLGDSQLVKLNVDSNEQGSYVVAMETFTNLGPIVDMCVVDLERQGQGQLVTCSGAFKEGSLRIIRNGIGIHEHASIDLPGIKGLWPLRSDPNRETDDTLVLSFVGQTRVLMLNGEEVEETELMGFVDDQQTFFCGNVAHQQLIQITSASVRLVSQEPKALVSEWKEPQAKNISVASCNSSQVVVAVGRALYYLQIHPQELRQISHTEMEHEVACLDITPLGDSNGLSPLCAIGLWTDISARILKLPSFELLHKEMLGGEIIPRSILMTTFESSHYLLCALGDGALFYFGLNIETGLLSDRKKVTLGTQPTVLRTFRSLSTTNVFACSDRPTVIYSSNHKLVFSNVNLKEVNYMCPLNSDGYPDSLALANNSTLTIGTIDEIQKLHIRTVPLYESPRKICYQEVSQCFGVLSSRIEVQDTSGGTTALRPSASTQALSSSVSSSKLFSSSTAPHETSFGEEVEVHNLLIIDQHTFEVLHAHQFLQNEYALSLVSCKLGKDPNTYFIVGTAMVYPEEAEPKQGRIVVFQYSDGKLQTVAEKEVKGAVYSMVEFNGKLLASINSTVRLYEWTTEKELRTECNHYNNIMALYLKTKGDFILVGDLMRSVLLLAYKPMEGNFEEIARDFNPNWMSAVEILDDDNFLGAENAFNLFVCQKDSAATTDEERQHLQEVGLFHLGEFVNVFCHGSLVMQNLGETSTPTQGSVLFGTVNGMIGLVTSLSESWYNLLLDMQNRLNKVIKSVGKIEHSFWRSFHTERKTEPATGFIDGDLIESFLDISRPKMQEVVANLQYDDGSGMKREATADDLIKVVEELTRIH

For orientation: pIC50 means −log10 of the IC50, conventionally taken in molar units. A word on the inhibition: it is the drop in the measured response relative to a control, in per cent. Lower therefore signals a weak effect. `O=c1ccc2cnc3ccc(-c4ccc(O)cc4)cc3c2n1-c1ccc(N2CCNCC2)c(C(F)(F)F)c1` [JW-7-25-1]: the pIC50 at MELK [1] was 8.30; on mTOR it was 8.26; at GSK3A it was 7.91; at CDK7, 7.20. Also, testing at 10 µM at MELK [2] gave an inhibition of 100%.

Consider `CCC(C(=O)N1CCCCC1C(=O)OC(CCc1ccc(OC)c(OC)c1)c1ccccc1OCC(=O)NCCCOCCOCCOCCCNC(=O)COc1cccc2c1C(=O)N(C1CCC(=O)NC1=O)C2=O)c1cc(OC)c(OC)c(OC)c1` (stereo not shown) [dTAG-7], for which the “time to efficient depletion of FKBP12^F36V-MELK(sg3R)” value in the test on FKBP12^F36V-MELK(sg3R) was no more than 4 h. In addition, on MELK [3], the “logFC (log2 fold change of dTAG-7 to DMSO) MELK” value is -0.8583. The “logFC (log2 fold change of dTAG-7 to DMSO) EEA1” value with EEA1 is -0.08592. Further, in the test with HNRNPR, the “logFC (log2 fold change of dTAG-7 to DMSO) HNRNPR” value worked out at 0.28. In addition, the “logFC (log2 fold change of dTAG-7 to DMSO) MKL1” value in the test on MKL1 is recorded as -0.2984.
